Experimental findings from EP2276483B1, “SOLID FORMS COMPRISING (+)-2-[1-(3-ETHOXY-4-METHOXYPHENYL)-2-METHYLSULFONYLETHYL]-4-ACETYLAMINOISOINDOLINE-1,3-DIONE, COMPOSITIONS THEREOF, AND USES THEREOF” (CELGENE CORPORATION, priority 2008, dated 2009) are described below.

One data set concerns TNF-α. As to the kind of experiment: LPS-induced TNF-α production from human PBMC. It counts as cell-based. The conditions noted are these: LPS 100 ng/ml. The method, then: Lipopolysaccharide (LPS) is an endotoxin produced by gram-negative bacteria such as E. coli which induces production of many pro-inflammatory cytokines, including TNF-α. In peripheral blood mononuclear cells (PBMC), the TNF-α produced in response to LPS is derived from monocytes, which comprise approximately 5-20% of the total PBMC. Compounds were tested for the ability to inhibit LPS-induced TNF-α production from human PBMC as previously described (Muller et al., 1996, J. Med. Chem., 39:3238). PBMC from normal donors were obtained by Ficoll Hypaque (Pharmacia, Piscataway, NJ, USA) density centrifugation. Cells were cultured in RPMI (Life Technologies, Grand Island, NY, USA) supplemented with 10% AB± human serum (Gemini Bio-products, Woodland, CA, USA), 2 mM L-glutamine, 100 U/ml penicillin, and 100 µg/ml streptomycin (Life Technologies).
PBMC (2 x 10^5 cells) were plated in 96-well flat-bottom Costar tissue culture plates (Coming, NY, USA) in triplicate. Cells were stimulated with LPS (Sigma, St. Louis, MO, USA) at 100 ng/ml in the absence or presence of compounds. Compounds (Celgene Corp., Warren, NJ, USA) were dissolved in DMSO (Sigma) and further dilutions were done in culture medium immediately before use. The final DMSO concentration in all samples was 0.25%. Compounds were added to cells one hour before LPS stimulation. […]

The test system of data set [1] is neutrophil adhesion to HUVEC. As to the kind of experiment: fMLF-induced neutrophil adhesion to HUVEC. It counts as cell-based. Particulars: human neutrophils, 500 nM fMLF. The method, then: Human umbilical vein endothelial cells (HUVEC) were used as a substrate for neutrophil adhesion as previously described (Derian et al., 1995, J. Immunol., 154:308-317) with the following modifications. HUVEC cells were obtained from Anthrogenesis (Cedar Knolls, NJ, USA), and neutrophils were not treated with cytochalasin B. Cells were treated with compounds at 10, 1, 0.1, 0.01, 0.001, and 0 µM in a final DMSO concentration of 0.1% in duplicate for 10 minutes, stimulated with 500 nM fMLF for 30 minutes, and washed twice with PBS before measuring fluorescence on an FLX800 plate reader (Bio-Tek Instruments, Winooski, VT, USA). Table 2. Assay results

The test system of data set [2] is patients with severe plaque-type psoriasis. It counts as in vivo, human.
The mark [3] stands for this setting: Nonresponder, 20 mg orally daily, signed change.

For the molecule `CCOc1cc(C(CS(C)(=O)=O)N2C(=O)c3cccc(NC(C)=O)c3C2=O)ccc1OC` (single isomer, unassigned; (+)) [Compound A, (+)-2-[1-(3-ethoxy-4-methoxyphenyl)-2-methylsulfonylethyl]-4-acetylaminoisoindoline-1,3-dione], the IC50 (as a rule, the concentration that gives 50% inhibition) in the data set with TNF-α was found to be 77 nM. The same molecule showed an IC50 in data set [1] of 150 nM. Besides, in data set [2] (20 mg orally daily for 29 days), the “treatment-related adverse event: headache” value turned out to be 26.3% and the “treatment-related adverse event: nausea” value is listed as 15.8%. In data set [2] (20 mg orally daily for 29 days, Day 29, 8 of the 15 patients with evaluable biopsies), the “patients demonstrating a 20% reduction in epidermal skin thickness” value amounted to 53.3%. Besides, the “mean reduction of epidermal thickness” value in data set [2] (20 mg orally daily, Day 29, all 15 subjects with evaluable biopsies, p=0.015) came to 20.5%. Also, the “safety in subjects with severe plaque-type psoriasis” value in data set [2] (20 mg p.o. QD for 29 days) is given as “safe”. Besides, the “patients demonstrating improvement in the static Physician's Global Assessment (sPGA)” value in data set [2] (9 of the 17 evaluable patients, 29 days of treatment) turned out to be 52.9%. In addition, the “patients showing a reduction from baseline in psoriasis body surface area (BSA)” value in data set [2] (10 of the 17 evaluable patients, 29 days of treatment) amounted to 58.8%. Also, the “patients showing a >50% reduction from baseline in total PASI score” value in data set [2] (Day 29, 3 patients of 19 enrolled) came to 15.8%. Also, in data set [2] (Day 29, 14 of the 19 subjects enrolled), the “subjects demonstrating improvement in their PASI” value turned out to be 73.7%. Moreover, in data set [2] (Day 29, of enrolled patients), the “enrolled patients showing a reduction from baseline in psoriasis body surface area (BSA)” value came to 52.6% and the “enrolled patients showing an improvement in their sPGA” value is recorded as 47.4%. Besides, in data set [2] (setting [3]), the “Percentage Reduction of Key Inflammatory Markers at Day 29: CD11c, Dermis” value was -21.19%; the “Percentage Reduction of Key Inflammatory Markers at Day 29: CD11c, Epidermis” value is given as -2.54%; the “Percentage Reduction of Key Inflammatory Markers at Day 29: CD83+, Dermis” value is reported as “+0.46%”; the “Percentage Reduction of Key Inflammatory Markers at Day 29: CD83+, Epidermis” value is recorded as -16.31%. For the same molecule, in data set [2] (setting [3]), the “Percentage Reduction of Key Inflammatory Markers at Day 29: T-cells, Dermis” value is given as -17.34% and the “Percentage Reduction of Key Inflammatory Markers at Day 29: T-cells, Epidermis” value is given as “+8.74%”. The “reduction of mRNA expression of iNOS” value in data set [2] (lesional skin after 29 days of treatment, RT-PCR, p=0.025) is reported as 66.5%.
